The values below come from ChEMBL document CHEMBL2157945, “Identification of pyrimidine derivatives as hSMG-1 inhibitors” (Bioorg Med Chem Lett, 2012).

Activity calls are given as the source filed them. The rule behind the calls is not given here.

For one assay, the species on record is Homo sapiens. Put plainly: Selectivity ratio of IC50 for mTOR to IC50 for human recombinant SMG1.
In assay [1] the target is T1, Serine/threonine-protein kinase SMG1 (Homo sapiens, UniProt Q96Q15). Nature of the assay: Inhibition of human recombinant SMG1 expressed in HEK293 cells using GST-tagged p53 as substrate after 1 hr by DELFIA assay.
Assay [2] deals with Cyclin-dependent kinase 2 (Homo sapiens, UniProt P24941). Nature of the assay: Inhibition of CDK2.
Assay [3] deals with T2, Serine/threonine-protein kinase mTOR (Homo sapiens, UniProt P42345). Put plainly: Inhibition of mTOR.
The target in assay [4] is Cyclin-dependent kinase 1 (Homo sapiens, UniProt P06493). Put plainly: Inhibition of CDK1.
For assay [5], the target named is T1, Serine/threonine-protein kinase SMG1. Put plainly: Inhibition of SMG1 in human MDA-MB-361 cells assessed as inhibition of UPF1 phosphorylation up to 3 uM after 6 hrs by immunostaining analysis. It counts as cell-based.
Assay [6] addresses Phosphatidylinositol 4,5-bisphosphate 3-kinase catalytic subunit gamma isoform (Homo sapiens, UniProt P48736). Nature of the assay: Inhibition of PI3Kgamma using diC8-tagged PIP2 as substrate after 30 to 60 mins by TAMRA-based fluorescence polarization assay. In general terms: Polarisation of emitted light reports the rotation of a fluorescent probe.
Assay [7] deals with Phosphatidylinositol 4,5-bisphosphate 3-kinase catalytic subunit alpha isoform (Homo sapiens, UniProt P42336). Put plainly: Inhibition of PI3Kalpha using diC8-tagged PIP2 as substrate after 30 to 60 mins by TAMRA-based fluorescence polarization assay.
Another assay relates to MDA-MB-468. Put plainly: Cytotoxicity against human MDA-MB-468 cells. Type of assay: functional, cell-based.
Assay [8] has as its target T1, Serine/threonine-protein kinase SMG1. Put plainly: Inhibition of SMG1 in human MDA-MB-361 cells assessed as inhibition of UPF1 phosphorylation at 1 uM after 6 hrs by immunostaining analysis. Type of assay: cell-based.
In assay [9] the target is Glycogen synthase kinase-3 beta (Homo sapiens, UniProt P49841). Put plainly: Inhibition of GSK3beta.
Another assay has as its system MDA-MB-361. Nature of the assay: Inhibition of PI3K in human MDA-MB-361 cells assessed as inhibition of AKT phosphorylation at 0.3 to 3 uM after 6 hrs by immunostaining analysis. It counts as cell-based.
Assay [10] addresses T2, Serine/threonine-protein kinase mTOR. Nature of the assay: Inhibition of mTOR in human MDA-MB-361 cells assessed as inhibition of p70S6K phosphorylation at 0.3 to 3 uM after 6 hrs by immunostaining analysis. Type of assay: cell-based.
Assay [11] addresses T1, Serine/threonine-protein kinase SMG1. Nature of the assay: Inhibition of SMG1 in human MDA-MB-361 cells assessed as inhibition of UPF1 phosphorylation at 0.3 uM after 6 hrs by immunostaining analysis. It counts as cell-based.
Assay [12] has as its target Glycogen synthase kinase-3 alpha (Homo sapiens, UniProt P49840). Nature of the assay: Inhibition of GSK3alpha.
The target in assay [13] is T1, Serine/threonine-protein kinase SMG1. Put plainly: Inhibition of SMG1 in human MDA-MB-361 cells assessed as inhibition of UPF1 phosphorylation after 6 hrs by immunostaining analysis. It counts as cell-based.

Sequence of Cyclin-dependent kinase 1 (P06493 whole entry): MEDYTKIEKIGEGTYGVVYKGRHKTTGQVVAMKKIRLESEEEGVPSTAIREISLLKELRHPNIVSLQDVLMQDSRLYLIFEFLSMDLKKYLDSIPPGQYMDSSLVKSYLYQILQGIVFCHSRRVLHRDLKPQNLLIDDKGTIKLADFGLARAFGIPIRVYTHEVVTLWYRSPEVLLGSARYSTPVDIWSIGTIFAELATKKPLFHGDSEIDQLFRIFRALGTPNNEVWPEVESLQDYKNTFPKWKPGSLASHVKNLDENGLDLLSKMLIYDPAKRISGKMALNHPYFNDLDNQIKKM
Sequence of Phosphatidylinositol 4,5-bisphosphate 3-kinase catalytic subunit alpha isoform (P42336 whole entry, canonical isoform): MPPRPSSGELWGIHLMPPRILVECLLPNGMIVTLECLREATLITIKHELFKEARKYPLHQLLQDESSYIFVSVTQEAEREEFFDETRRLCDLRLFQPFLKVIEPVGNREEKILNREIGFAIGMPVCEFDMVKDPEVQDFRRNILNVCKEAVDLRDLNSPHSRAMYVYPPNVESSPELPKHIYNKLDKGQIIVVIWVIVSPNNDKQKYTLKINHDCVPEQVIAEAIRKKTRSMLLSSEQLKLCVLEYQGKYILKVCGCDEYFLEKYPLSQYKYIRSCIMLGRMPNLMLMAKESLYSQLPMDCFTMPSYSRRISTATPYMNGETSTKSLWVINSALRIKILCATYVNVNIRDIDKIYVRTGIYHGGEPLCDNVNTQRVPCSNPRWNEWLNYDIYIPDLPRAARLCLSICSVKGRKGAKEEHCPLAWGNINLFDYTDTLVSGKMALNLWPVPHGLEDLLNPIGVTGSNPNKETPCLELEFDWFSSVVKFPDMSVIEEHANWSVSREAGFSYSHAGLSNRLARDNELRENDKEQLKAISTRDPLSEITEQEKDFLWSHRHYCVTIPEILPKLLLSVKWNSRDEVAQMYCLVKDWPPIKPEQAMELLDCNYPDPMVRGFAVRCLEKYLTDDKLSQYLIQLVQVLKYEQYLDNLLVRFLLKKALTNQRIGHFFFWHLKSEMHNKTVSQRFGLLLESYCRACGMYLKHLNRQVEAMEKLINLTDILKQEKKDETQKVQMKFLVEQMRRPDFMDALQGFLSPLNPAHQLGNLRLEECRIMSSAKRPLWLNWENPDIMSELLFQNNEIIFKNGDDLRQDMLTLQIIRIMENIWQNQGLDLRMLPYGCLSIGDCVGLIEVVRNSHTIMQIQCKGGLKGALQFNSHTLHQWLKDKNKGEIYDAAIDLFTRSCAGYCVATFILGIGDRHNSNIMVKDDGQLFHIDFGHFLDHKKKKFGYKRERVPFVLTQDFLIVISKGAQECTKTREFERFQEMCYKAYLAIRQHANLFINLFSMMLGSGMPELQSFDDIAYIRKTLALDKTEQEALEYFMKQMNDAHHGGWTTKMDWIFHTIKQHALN
Sequence of Phosphatidylinositol 4,5-bisphosphate 3-kinase catalytic subunit gamma isoform (P48736 whole entry, canonical isoform): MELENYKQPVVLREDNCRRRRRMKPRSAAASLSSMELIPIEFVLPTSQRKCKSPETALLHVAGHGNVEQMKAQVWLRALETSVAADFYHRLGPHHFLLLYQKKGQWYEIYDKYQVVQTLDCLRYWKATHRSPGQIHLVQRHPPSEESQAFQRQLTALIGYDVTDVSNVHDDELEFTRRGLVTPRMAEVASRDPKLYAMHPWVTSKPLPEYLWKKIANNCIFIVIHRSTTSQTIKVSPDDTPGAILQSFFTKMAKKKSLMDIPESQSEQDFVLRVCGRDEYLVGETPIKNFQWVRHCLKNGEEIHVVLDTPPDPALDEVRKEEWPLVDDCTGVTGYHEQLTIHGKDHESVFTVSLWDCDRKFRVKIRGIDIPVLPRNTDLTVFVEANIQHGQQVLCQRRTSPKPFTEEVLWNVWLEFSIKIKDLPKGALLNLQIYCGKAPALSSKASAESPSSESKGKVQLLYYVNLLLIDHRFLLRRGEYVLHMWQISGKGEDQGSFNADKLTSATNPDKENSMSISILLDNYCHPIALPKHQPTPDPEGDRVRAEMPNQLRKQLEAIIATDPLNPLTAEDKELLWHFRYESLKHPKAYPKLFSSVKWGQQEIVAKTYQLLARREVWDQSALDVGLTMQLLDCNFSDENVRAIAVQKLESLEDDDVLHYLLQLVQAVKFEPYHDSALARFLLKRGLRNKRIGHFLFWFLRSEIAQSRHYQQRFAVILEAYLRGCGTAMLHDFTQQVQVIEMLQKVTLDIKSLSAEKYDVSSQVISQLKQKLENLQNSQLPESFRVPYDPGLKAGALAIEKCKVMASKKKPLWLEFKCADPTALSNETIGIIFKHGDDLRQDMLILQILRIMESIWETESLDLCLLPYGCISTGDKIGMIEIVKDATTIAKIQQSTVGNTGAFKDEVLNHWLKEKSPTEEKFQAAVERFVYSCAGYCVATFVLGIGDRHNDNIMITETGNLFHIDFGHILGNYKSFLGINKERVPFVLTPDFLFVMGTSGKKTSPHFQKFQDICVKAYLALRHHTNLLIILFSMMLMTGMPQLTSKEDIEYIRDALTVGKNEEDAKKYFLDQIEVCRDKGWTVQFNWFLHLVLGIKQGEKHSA
Sequence of Glycogen synthase kinase-3 alpha (P49840 whole entry): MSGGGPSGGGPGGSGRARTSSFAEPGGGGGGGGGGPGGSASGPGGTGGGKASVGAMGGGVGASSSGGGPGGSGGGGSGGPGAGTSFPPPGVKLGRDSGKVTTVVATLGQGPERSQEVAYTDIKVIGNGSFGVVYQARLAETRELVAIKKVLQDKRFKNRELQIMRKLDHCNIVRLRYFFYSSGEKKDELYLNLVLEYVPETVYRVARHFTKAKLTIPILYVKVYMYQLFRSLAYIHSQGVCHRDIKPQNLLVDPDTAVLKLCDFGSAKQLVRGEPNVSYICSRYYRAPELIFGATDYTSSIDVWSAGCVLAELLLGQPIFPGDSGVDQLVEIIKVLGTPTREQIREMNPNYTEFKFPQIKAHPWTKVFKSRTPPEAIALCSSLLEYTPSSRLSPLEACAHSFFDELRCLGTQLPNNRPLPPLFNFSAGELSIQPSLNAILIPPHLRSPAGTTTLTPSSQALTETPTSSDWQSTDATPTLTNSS
Sequence of Glycogen synthase kinase-3 beta (P49841 whole entry): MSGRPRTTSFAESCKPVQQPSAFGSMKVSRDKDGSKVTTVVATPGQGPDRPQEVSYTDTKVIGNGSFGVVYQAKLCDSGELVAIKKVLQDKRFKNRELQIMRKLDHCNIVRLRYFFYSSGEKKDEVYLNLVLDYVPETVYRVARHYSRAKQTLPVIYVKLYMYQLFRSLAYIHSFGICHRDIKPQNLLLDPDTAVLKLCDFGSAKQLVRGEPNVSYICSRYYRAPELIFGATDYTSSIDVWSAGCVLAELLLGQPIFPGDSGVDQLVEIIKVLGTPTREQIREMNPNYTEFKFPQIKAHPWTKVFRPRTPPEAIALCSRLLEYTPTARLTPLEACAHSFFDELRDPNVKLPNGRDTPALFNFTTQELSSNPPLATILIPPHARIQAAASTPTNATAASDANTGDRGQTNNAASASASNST

In general, IC50 refers to the concentration needed to halve the response being measured. Consider `NS(=O)(=O)c1cccc(Nc2nccc(-c3ccnc(N4C5CCC4COC5)c3)n2)c1`, for which the Ratio IC50 in the assay filed under Homo sapiens was found to be 130. Moreover, the 50% inhibitory concentration (IC50) in [1] amounted to 25 nM; in assay [2], 31 nM; in [3] it was 3200 nM; in assay [4], 100 nM.

Turning to `CNC(=O)Nc1ccc(-c2cc(-c3ccnc(Nc4ccc(Cl)c(S(=O)(=O)NC)c4)n3)ccn2)cc1`, the Ratio IC50 in the assay listed under Homo sapiens was above 154. The IC50 in [1] is below 0.05 nM; in [2], 140 nM; in [3] it was 7.7 nM; in [4], 320 nM.

Consider `Clc1ccc(Nc2nccc(-c3ccnc(N4CCOCC4)c3)n2)cc1`, for which, in the assay listed under Homo sapiens, the Ratio IC50 was above 19. Besides, the IC50 in assay [1] is 1000 nM; in [3], above 20000 nM.

For `NS(=O)(=O)c1cccc(Nc2nccc(-c3ccnc(N4CCOCC4)c3)n2)c1`, in the assay filed under Homo sapiens, the Ratio IC50 was 56. Further, the IC50 came out at 11 nM in assay [1], 19 nM in assay [2], 610 nM in assay [3] and 55 nM in [4].

Regarding `CNC(=O)Nc1ccc(-c2cc(-c3ccnc(Nc4ccc(C)c(S(N)(=O)=O)c4)n3)ccn2)cc1`, the Ratio IC50 in the assay listed under Homo sapiens was above 320. For the same compound, the IC50 in assay [1] is below 0.05 nM; in assay [3] it was 16 nM.

On to `NS(=O)(=O)c1ccc(Nc2nccc(-c3ccnc(N4CCOCC4)c3)n2)cc1`, for which, in assay [5], the inhibition entry is “inactive”. Besides, in the assay listed under Homo sapiens, the Ratio IC50 was above 54. Also, the IC50 was 370 nM in [1] and above 20000 nM in assay [3].

For `CNC(=O)Nc1ccc(-c2cc(-c3ccnc(Nc4ccc(Cl)c(S(=O)(=O)N(C)C)c4)n3)ccn2)cc1`, in the assay filed under Homo sapiens, the Ratio IC50 is above 244. For the same compound, the IC50 was below 0.05 nM in assay [1]; 520 nM in assay [2]; 54 nM in [6]; 12 nM in assay [3]; 1400 nM in assay [4]; 33 nM in assay [7].

For the compound `CCN(CC)S(=O)(=O)c1cc(Nc2nccc(-c3ccnc(-c4ccc(NC(=O)NC)cc4)c3)n2)ccc1Cl`, the half-maximal inhibitory concentration (IC50) in the assay with MDA-MB-468 was 75 nM; in assay [9], 330 nM; in assay [1], 0.11 nM; in assay [2] it was 7100 nM; in assay [6], 60 nM; in assay [3], 50 nM. Besides, the IC50 in [12] came to 260 nM; in assay [4], 32000 nM; in [7] it was 92 nM. Besides, the inhibition result in assay [8] and in assay [11] was “Active” throughout. Further, the Ratio IC50 in the assay filed under Homo sapiens was determined as 455. For the same compound, the inhibition entry (in the assay on MDA-MB-361; in assay [10]) was “inactive” each time.

As to `CCN(CC)S(=O)(=O)c1cccc(Nc2nccc(-c3ccnc(-c4ccc(NC(=O)NC)cc4)c3)n2)c1`, in the assay listed under Homo sapiens, the Ratio IC50 worked out at 125. Further, the half-inhibitory concentration (IC50) in [1] is 0.2 nM; in assay [2] it was 560 nM; in [6], 59 nM; in assay [3], 25 nM; in assay [4], 3200 nM; in assay [7] it was 78 nM.

`NS(=O)(=O)c1cccc(Nc2nccc(-c3ccnc(NCCCO)c3)n2)c1`: in the assay filed under Homo sapiens, the Ratio IC50 amounted to 15. For the same compound, the half-inhibitory concentration (IC50) in [1] was 22 nM; in assay [2], 6.7 nM; in assay [3] it was 320 nM; in [4], 12 nM.

Consider `NS(=O)(=O)c1cccc(Nc2nccc(-c3ccnc(N4CC5CCC(C4)O5)c3)n2)c1`, for which the Ratio IC50 in the assay listed under Homo sapiens turned out to be 33. The 50% inhibitory concentration (IC50) amounted to 6 nM in assay [1], 21 nM in assay [2], 200 nM in assay [3] and 48 nM in [4].

Regarding `OCCCNc1cc(-c2ccnc(Nc3cccc(Cl)c3)n2)ccn1`, the Ratio IC50 in the assay filed under Homo sapiens is 8. The IC50 is 110 nM in [1], below 5.2 nM in [2], 800 nM in [3] and below 5.2 nM in [4].

Turning to `CNC(=O)Nc1ccc(-c2cc(-c3ccnc(Nc4ccc(C)c(S(=O)(=O)NC)c4)n3)ccn2)cc1`, the Ratio IC50 in the assay filed under Homo sapiens is above 350. For the same compound, the IC50 is below 0.05 nM in assay [1]; 110 nM in assay [2]; 63 nM in assay [6]; 18 nM in assay [3]; 230 nM in assay [4]; 43 nM in [7].

Regarding `N#Cc1cccc(Nc2nccc(-c3ccnc(N4CCOCC4)c3)n2)c1`, in the assay filed under Homo sapiens, the Ratio IC50 is above 50. For the same compound, the IC50 in assay [1] was 80 nM; in assay [3], above 4000 nM.

Take `CCN(CC)S(=O)(=O)c1cc(Nc2nccc(-c3ccnc(-c4ccc(NC(=O)NC)cc4)c3)n2)ccc1C`: in the assay filed under Homo sapiens, the Ratio IC50 was found to be 440. Further, the concentration for half-maximal inhibition (IC50) in [1] stood at 0.2 nM; in [2] it was 3000 nM; in [6], 93 nM; in assay [3] it was 88 nM; in assay [4], 14000 nM; in assay [7] it was 130 nM.

For the compound `FC(F)(F)c1cccc(Nc2nccc(-c3ccnc(N4CCOCC4)c3)n2)c1`, the Ratio IC50 in the assay filed under Homo sapiens amounted to 7. Further, the IC50 came to 250 nM in [1] and 1700 nM in assay [3].

Regarding `COc1cccc(Nc2nccc(-c3ccnc(N4CCOCC4)c3)n2)c1`, the Ratio IC50 in the assay filed under Homo sapiens is 4. For the same compound, the IC50 is 1100 nM in [1] and 4600 nM in [3].

Turning to `Clc1cccc(Nc2nccc(-c3ccnc(N4CCOCC4)c3)n2)c1`, the Ratio IC50 in the assay filed under Homo sapiens is above 71. The IC50 in assay [1] is 280 nM; in assay [2] it was 8.9 nM; in assay [3], above 20000 nM; in assay [4] it was 35 nM.

As for `CN1CCN(c2cc(-c3ccnc(Nc4cccc(S(N)(=O)=O)c4)n3)ccn2)CC1`, the Ratio IC50 in the assay listed under Homo sapiens came to 10. The IC50 in assay [1] turned out to be 310 nM; in assay [3], 3300 nM.

As for `CNC(=O)Nc1ccc(-c2cc(-c3ccnc(Nc4cccc(S(=O)(=O)NC)c4)n3)ccn2)cc1`, the Ratio IC50 in the assay listed under Homo sapiens was above 150. The IC50 in assay [1] stood at 0.1 nM; in [2], 100 nM; in assay [6], 82 nM; in assay [3], 15 nM; in assay [4], 210 nM; in assay [7], 80 nM.

In the case of `Cc1cccc(Nc2nccc(-c3ccnc(N4CCOCC4)c3)n2)c1`, in the assay listed under Homo sapiens, the Ratio IC50 is above 61. Besides, the IC50 in [1] is 330 nM; in [2] it was 46 nM; in [3], above 20000 nM; in [4], 100 nM.

For `CCN(CC)c1cc(-c2ccnc(Nc3cccc(S(N)(=O)=O)c3)n2)ccn1`, the Ratio IC50 in the assay listed under Homo sapiens was 37. The IC50 is 3 nM in assay [1], below 5.2 nM in [2], 110 nM in [3] and 7.4 nM in assay [4].

For the compound `CNC(=O)Nc1ccc(-c2cc(-c3ccnc(Nc4cccc(S(N)(=O)=O)c4)n3)ccn2)cc1`, in the assay listed under Homo sapiens, the Ratio IC50 is above 360. In addition, the half-inhibitory concentration (IC50) is below 0.05 nM in [1]; 23 nM in [2]; 91 nM in [6]; 18 nM in [3]; 62 nM in [4]; 44 nM in assay [7].

Consider `c1ccc(Nc2nccc(-c3ccnc(N4CCOCC4)c3)n2)cc1`, for which the Ratio IC50 in the assay listed under Homo sapiens was above 3. In addition, the IC50 in assay [1] is 1500 nM; in assay [3] it was above 4000 nM.

On to `NS(=O)(=O)c1cccc(Nc2nccc(-c3ccnc(N4CCCCC4)c3)n2)c1`, for which, in the assay listed under Homo sapiens, the Ratio IC50 is 47. Besides, the 50% inhibitory concentration (IC50) in [1] came out at 3 nM; in assay [2], 16 nM; in assay [3], 140 nM; in assay [4], 36 nM. Moreover, the inhibition result (in the assay with MDA-MB-361; in assay [10]) was “Active” in each case. In addition, in [13], the inhibition entry is “Dose-dependent effect”.

Take `NS(=O)(=O)c1ccc(Nc2nccc(-c3cccc(C(=O)N4CCCCC4)c3)n2)cc1`: the results for the IC50 in [1] and in assay [3] were 450 nM and 890 nM, respectively.

With `CNC(=O)Nc1ccc(-c2cc(-c3ccnc(Nc4ccc(C)c(S(=O)(=O)N(C)C)c4)n3)ccn2)cc1`, in the assay listed under Homo sapiens, the Ratio IC50 is above 900. The half-maximal inhibitory concentration (IC50) in assay [1] is below 0.05 nM; in [2], 460 nM; in assay [6] it was 72 nM; in [3], 45 nM; in [4], 1200 nM; in [7], 61 nM.
